Source: ChEMBL document CHEMBL3091428, “Synthesis and initial biological evaluation of substituted 1-phenylamino-2-thio-4,5-dimethyl-1H-imidazole derivatives” (Bioorg Med Chem Lett, 2013)
Converted amounts (≈) assume the structure as drawn.

Key:
Nakaseomyces glabratus = test: Antimicrobial activity against Candida glabrata ATCC 90030 after 24 hrs by broth microdilution method; assay type: functional; conditions: ATCC 90030, 24 h
Escherichia coli [1] = test: Antimicrobial activity against Escherichia coli ATCC 25922 after 24 hrs by broth microdilution method; assay type: functional; conditions: ATCC 25922, 24 h
Klebsiella pneumoniae = test: Antimicrobial activity against Klebsiella pneumoniae ATCC 13883 after 24 hrs by broth microdilution method; assay type: functional; conditions: ATCC 13883, 24 h
Listeria monocytogenes = test: Antimicrobial activity against Listeria monocytogenes ATCC 19115 after 24 hrs by broth microdilution method; assay type: functional; conditions: ATCC 19115, 24 h
Staphylococcus aureus = test: Antimicrobial activity against Staphylococcus aureus ATCC 25923 after 24 hrs by broth microdilution method; assay type: functional; conditions: ATCC 25923, 24 h
Candida albicans = test: Antimicrobial activity against Candida albicans ATCC 90028 after 24 hrs by broth microdilution method; assay type: functional; conditions: ATCC 90028, 24 h
Enterococcus faecalis [2] = test: Antimicrobial activity against Enterococcus faecalis ATCC 29212 after 24 hrs by broth microdilution method; assay type: functional; conditions: ATCC 29212, 24 h
Pichia kudriavzevii = test: Antimicrobial activity against Candida krusei ATCC 6258 after 24 hrs by broth microdilution method; assay type: functional; conditions: ATCC 6258, 24 h
Escherichia coli [3] = test: Antimicrobial activity against Escherichia coli ATCC 35218 after 24 hrs by broth microdilution method; assay type: functional; conditions: ATCC 35218, 24 h
Pseudomonas aeruginosa = test: Antimicrobial activity against Pseudomonas aeruginosa ATCC 27853 after 24 hrs by broth microdilution method; assay type: functional; conditions: ATCC 27853, 24 h
Enterococcus faecalis [4] = test: Antimicrobial activity against Enterococcus faecalis ATCC 51299 after 24 hrs by broth microdilution method; assay type: functional; conditions: ATCC 51299, 24 h
[5] = Toxicity in brine shrimp larvae assessed as mortality after 24 hrs; assay type: organism-based; conditions: artemia salina, in vivo
Artemia salina [6] = test: Toxicity in brine shrimp larvae assessed as mortality at 800 ug/ml after 24 hrs; assay type: organism-based; conditions: in vivo
Artemia salina [7] = test: Toxicity in brine shrimp larvae assessed as mortality at 1600 ug/ml after 24 hrs; assay type: organism-based; conditions: in vivo
Artemia salina [8] = test: Toxicity in brine shrimp larvae assessed as mortality at 400 ug/ml after 24 hrs; assay type: organism-based; conditions: in vivo
Artemia salina [9] = test: Toxicity in brine shrimp larvae assessed as mortality at 200 ug/ml after 24 hrs; assay type: organism-based; conditions: in vivo
Artemia salina [10] = test: Toxicity in brine shrimp larvae assessed as mortality at 50 ug/ml after 24 hrs; assay type: organism-based; conditions: in vivo
Artemia salina [11] = test: Toxicity in brine shrimp larvae assessed as mortality at 100 ug/ml after 24 hrs; assay type: organism-based; conditions: in vivo

| SMILES | MIC (Nakaseomyces glabratus) [µg/mL] | MIC (Escherichia coli [1]) [µg/mL] | MIC (Klebsiella pneumoniae) [µg/mL] | MIC (Listeria monocytogenes) [µg/mL] | MIC (Staphylococcus aureus) [µg/mL] | MIC (Candida albicans) [µg/mL] | MIC (Enterococcus faecalis [2]) [µg/mL] | MIC (Pichia kudriavzevii) [µg/mL] | MIC (Escherichia coli [3]) [µg/mL] | MIC (Pseudomonas aeruginosa) [µg/mL] | MIC (Enterococcus faecalis [4]) [µg/mL] | LC50 at 24 h [5] [µg/mL] | Activity (Artemia salina [6]) | Activity (Artemia salina [7]) | Activity (Artemia salina [8]) | Activity (Artemia salina [9]) | Activity (Artemia salina [10]) | Activity (Artemia salina [11]) |
| --- | --- | --- | --- | --- | --- | --- | --- | --- | --- | --- | --- | --- | --- | --- | --- | --- | --- | --- |
| Cc1nc(SCC(=O)c2ccc(F)c(F)c2)n(Nc2ccccc2)c1C | 400 (≈ 1070 µM) | 400 (≈ 1070 µM) | 400 (≈ 1070 µM) | 50 (≈ 134 µM) | 100 (≈ 268 µM) | 400 (≈ 1070 µM) | 25 (≈ 66.9 µM) | 200 (≈ 536 µM) | 400 (≈ 1070 µM) | 400 (≈ 1070 µM) | 400 (≈ 1070 µM) | 465 (≈ 1250 µM) | – | – | – | – | – | – |
| COc1cccc(C(=O)CSc2nc(C)c(C)n2Nc2ccc(C)cc2)c1 | 400 (≈ 1050 µM) | 800 (≈ 2100 µM) | 800 (≈ 2100 µM) | 400 (≈ 1050 µM) | 800 (≈ 2100 µM) | 400 (≈ 1050 µM) | 800 (≈ 2100 µM) | 200 (≈ 524 µM) | 200 (≈ 524 µM) | 800 (≈ 2100 µM) | 400 (≈ 1050 µM) | – | – | – | – | – | – | – |
| COc1ccc(C(=O)CSc2nc(C)c(C)n2Nc2ccc(C)cc2)cc1 | 100 (≈ 262 µM) | 100 (≈ 262 µM) | 400 (≈ 1050 µM) | 50 (≈ 131 µM) | 400 (≈ 1050 µM) | 25 (≈ 65.5 µM) | 25 (≈ 65.5 µM) | 25 (≈ 65.5 µM) | 400 (≈ 1050 µM) | 400 (≈ 1050 µM) | 400 (≈ 1050 µM) | 153 (≈ 400 µM) | Toxic | Toxic | Toxic | – | – | – |
| COc1ccc(C(=O)CSc2nc(C)c(C)n2Nc2ccc(C)cc2)cc1OC | 100 (≈ 243 µM) | 200 (≈ 486 µM) | 400 (≈ 972 µM) | 50 (≈ 121 µM) | 400 (≈ 972 µM) | 100 (≈ 243 µM) | 100 (≈ 243 µM) | 50 (≈ 121 µM) | 200 (≈ 486 µM) | 400 (≈ 972 µM) | 400 (≈ 972 µM) | 1310 (≈ 3180 µM) | – | – | – | Non-toxic | Non-toxic | Non-toxic |

More lines, main results first:

| MIC (Nakaseomyces glabratus) [µg/mL] | MIC (Escherichia coli [1]) [µg/mL] | MIC (Klebsiella pneumoniae) [µg/mL] | MIC (Listeria monocytogenes) [µg/mL] | MIC (Staphylococcus aureus) [µg/mL] | MIC (Candida albicans) [µg/mL] | MIC (Enterococcus faecalis [2]) [µg/mL] | MIC (Pichia kudriavzevii) [µg/mL] | MIC (Escherichia coli [3]) [µg/mL] | MIC (Pseudomonas aeruginosa) [µg/mL] | MIC (Enterococcus faecalis [4]) [µg/mL] | SMILES | LC50 at 24 h [5] [µg/mL] | Activity (Artemia salina [6]) | Activity (Artemia salina [7]) | Activity (Artemia salina [8]) | Activity (Artemia salina [9]) | Activity (Artemia salina [10]) | Activity (Artemia salina [11]) |
| --- | --- | --- | --- | --- | --- | --- | --- | --- | --- | --- | --- | --- | --- | --- | --- | --- | --- | --- |
| 400 (≈ 1130 µM) | 800 (≈ 2250 µM) | 400 (≈ 1130 µM) | 400 (≈ 1130 µM) | 800 (≈ 2250 µM) | 400 (≈ 1130 µM) | 400 (≈ 1130 µM) | 200 (≈ 563 µM) | 400 (≈ 1130 µM) | 400 (≈ 1130 µM) | 400 (≈ 1130 µM) | Cc1nc(SCC(=O)c2ccc(F)cc2)n(Nc2ccccc2)c1C | – | – | – | – | – | – | – |
| 400 (≈ 1080 µM) | 400 (≈ 1080 µM) | 800 (≈ 2150 µM) | 400 (≈ 1080 µM) | 400 (≈ 1080 µM) | 800 (≈ 2150 µM) | 400 (≈ 1080 µM) | 200 (≈ 538 µM) | 400 (≈ 1080 µM) | 400 (≈ 1080 µM) | 400 (≈ 1080 µM) | Cc1nc(SCC(=O)c2cccc(Cl)c2)n(Nc2ccccc2)c1C | – | – | – | – | – | – | – |
| 200 (≈ 492 µM) | 800 (≈ 1970 µM) | 800 (≈ 1970 µM) | 400 (≈ 984 µM) | 800 (≈ 1970 µM) | 400 (≈ 984 µM) | 200 (≈ 492 µM) | 200 (≈ 492 µM) | 800 (≈ 1970 µM) | 400 (≈ 984 µM) | 800 (≈ 1970 µM) | Cc1nc(SCC(=O)c2ccc(Cl)c(Cl)c2)n(Nc2ccccc2)c1C | – | – | – | – | – | – | – |
| 400 (≈ 1140 µM) | 800 (≈ 2280 µM) | 400 (≈ 1140 µM) | 800 (≈ 2280 µM) | 800 (≈ 2280 µM) | 800 (≈ 2280 µM) | 400 (≈ 1140 µM) | 400 (≈ 1140 µM) | 200 (≈ 569 µM) | 800 (≈ 2280 µM) | 800 (≈ 2280 µM) | Cc1ccc(Nn2c(SCC(=O)c3ccccc3)nc(C)c2C)cc1 | – | – | – | – | – | – | – |
